Data published in ChEMBL document CHEMBL5723584 (2023).

Columns and labels:
[1] = biological target: Tyrosine-protein kinase Fgr (Homo sapiens) (UniProt P09769); experiment: activity of Fgr(h) at 1.0 µM in the Eurofins Kinase panel; conditions: Compound concentration 1.0 uM
[2] = biological target: CDK9/cyclin T1 (Homo sapiens) (UniProt O60563+P50750); experiment: activity of CDK9/cyclin T1(h) at 1.0 µM in the Eurofins Kinase panel; type: protein-complex assay; conditions: Compound concentration 1.0 uM
[3] = biological target: Hepatocyte growth factor receptor (Homo sapiens) (UniProt P08581); experiment: activity of Met(h) at 1.0 µM in the Eurofins Kinase panel; conditions: Compound concentration 1.0 uM
[4] = biological target: Death-associated protein kinase 1 (Homo sapiens) (UniProt P53355); experiment: activity of DAPK1(h) at 1.0 µM in the Eurofins Kinase panel; conditions: Compound concentration 1.0 uM
[5] = biological target: mTOR/FKBP12A/FKBP12B (Homo sapiens) (UniProt P62942+P68106+P42345); experiment: activity of mTOR/FKBP12(h) at 1.0 µM in the Eurofins Kinase panel; type: protein-complex assay; conditions: Compound concentration 1.0 uM
[6] = biological target: Protein kinase C beta type (Homo sapiens) (UniProt P05771); experiment: activity of PKCbetaI(h) at 1.0 µM in the Eurofins Kinase panel; conditions: Compound concentration 1.0 uM
[7] = biological target: Ribosomal protein S6 kinase beta-1 (Homo sapiens) (UniProt P23443); experiment: activity of p70S6K(h) at 1.0 µM in the Eurofins Kinase panel; conditions: Compound concentration 1.0 uM
[8] = biological target: Tyrosine-protein kinase HCK (Homo sapiens) (UniProt P08631); experiment: activity of Hck(h) at 1.0 µM in the Eurofins Kinase panel; conditions: Compound concentration 1.0 uM
Sequence of Tyrosine-protein kinase HCK (Homo sapiens) (P08631 2-526 limits assumed): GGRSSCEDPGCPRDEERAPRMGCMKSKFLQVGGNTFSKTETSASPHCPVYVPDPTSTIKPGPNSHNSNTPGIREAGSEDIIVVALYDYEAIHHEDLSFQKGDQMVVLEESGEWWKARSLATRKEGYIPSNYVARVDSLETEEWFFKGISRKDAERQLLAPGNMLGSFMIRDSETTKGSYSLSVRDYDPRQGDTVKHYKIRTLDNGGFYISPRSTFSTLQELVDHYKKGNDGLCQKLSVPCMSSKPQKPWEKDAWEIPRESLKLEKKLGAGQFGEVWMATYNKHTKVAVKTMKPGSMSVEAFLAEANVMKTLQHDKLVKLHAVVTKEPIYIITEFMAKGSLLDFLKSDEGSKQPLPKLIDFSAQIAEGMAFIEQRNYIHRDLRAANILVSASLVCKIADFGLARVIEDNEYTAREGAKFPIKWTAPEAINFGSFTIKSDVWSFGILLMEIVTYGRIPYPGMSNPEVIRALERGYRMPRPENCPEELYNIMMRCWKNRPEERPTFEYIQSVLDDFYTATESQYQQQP

[9] = biological target: Phosphorylase b kinase gamma catalytic chain, skeletal muscle/heart isoform (Homo sapiens) (UniProt Q16816); experiment: activity of PhKgamma1(h) at 1.0 µM in the Eurofins Kinase panel; conditions: Compound concentration 1.0 uM
[10] = biological target: CDK3/Cyclin E (Homo sapiens) (UniProt P24864+Q00526); experiment: activity of CDK3/cyclinE(h) at 1.0 µM in the Eurofins Kinase panel; type: protein-complex assay; conditions: Compound concentration 1.0 uM
Sequence of CDK3/Cyclin E (Homo sapiens) (P24864 whole entry, looked up): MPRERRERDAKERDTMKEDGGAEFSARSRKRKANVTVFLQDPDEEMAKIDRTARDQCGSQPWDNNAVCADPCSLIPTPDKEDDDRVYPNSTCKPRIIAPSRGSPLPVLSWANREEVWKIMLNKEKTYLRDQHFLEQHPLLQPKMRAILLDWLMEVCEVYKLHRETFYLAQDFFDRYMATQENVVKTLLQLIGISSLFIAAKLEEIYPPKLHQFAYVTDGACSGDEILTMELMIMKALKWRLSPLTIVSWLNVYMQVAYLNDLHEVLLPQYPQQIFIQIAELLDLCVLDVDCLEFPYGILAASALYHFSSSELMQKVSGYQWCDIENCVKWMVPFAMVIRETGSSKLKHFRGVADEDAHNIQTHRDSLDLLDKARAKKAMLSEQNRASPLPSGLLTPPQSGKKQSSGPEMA
Sequence of CDK3/Cyclin E (Homo sapiens) (Q00526 whole entry, looked up): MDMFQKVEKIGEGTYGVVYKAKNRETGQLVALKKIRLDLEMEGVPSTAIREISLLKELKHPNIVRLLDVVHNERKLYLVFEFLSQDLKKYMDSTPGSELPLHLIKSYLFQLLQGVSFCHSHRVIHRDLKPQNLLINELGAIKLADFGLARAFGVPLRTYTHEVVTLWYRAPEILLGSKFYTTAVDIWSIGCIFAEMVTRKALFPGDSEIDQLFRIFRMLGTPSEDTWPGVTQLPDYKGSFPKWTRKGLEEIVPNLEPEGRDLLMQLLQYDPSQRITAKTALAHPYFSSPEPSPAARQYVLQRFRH

[11] = biological target: Fibroblast growth factor receptor 2 (Homo sapiens) (UniProt P21802); experiment: activity of FGFR2(h) at 1.0 µM in the Eurofins Kinase panel; conditions: Compound concentration 1.0 uM
[12] = biological target: Vascular endothelial growth factor receptor 3 (Homo sapiens) (UniProt P35916); experiment: activity of Flt4(h) at 1.0 µM in the Eurofins Kinase panel; conditions: Compound concentration 1.0 uM
[13] = biological target: CDK17/Cyclin-Y (Homo sapiens) (UniProt Q00537+Q8ND76); experiment: activity of CDK17/cyclinY(h) at 1.0 µM in the Eurofins Kinase panel; type: protein-complex assay; conditions: Compound concentration 1.0 uM
[14] = biological target: Aurora kinase C (Homo sapiens) (UniProt Q9UQB9); experiment: activity of Aurora-C(h) at 1.0 µM in the Eurofins Kinase panel; conditions: Compound concentration 1.0 uM
[15] = biological target: Serine/threonine-protein kinase pim-3 (Homo sapiens) (UniProt Q86V86); experiment: activity of Pim-3(h) at 1.0 µM in the Eurofins Kinase panel; conditions: Compound concentration 1.0 uM
[16] = biological target: Phosphatidylinositol 4,5-bisphosphate 3-kinase catalytic subunit gamma isoform (Homo sapiens) (UniProt P48736); experiment: activity of PI3 Kinase (p120gamma)(h) at 1.0 µM in the Eurofins Kinase panel; conditions: Compound concentration 1.0 uM
[17] = biological target: Calcium/calmodulin-dependent protein kinase type 1G (Homo sapiens) (UniProt Q96NX5); experiment: activity of CaMKIgamma(h) at 1.0 µM in the Eurofins Kinase panel; conditions: Compound concentration 1.0 uM
[18] = biological target: Ephrin type-A receptor 8 (Homo sapiens) (UniProt P29322); experiment: activity of EphA8(h) at 1.0 µM in the Eurofins Kinase panel; conditions: Compound concentration 1.0 uM
[19] = biological target: Protein kinase C theta type (Homo sapiens) (UniProt Q04759); experiment: activity of PKCtheta(h) at 1.0 µM in the Eurofins Kinase panel; conditions: Compound concentration 1.0 uM
[20] = biological target: Tyrosine-protein kinase HCK (Homo sapiens) (UniProt P08631); experiment: activity of Hck(h) activated at 1.0 µM in the Eurofins Kinase panel; conditions: Compound concentration 1.0 uM
[21] = biological target: Mitogen-activated protein kinase 8 (Homo sapiens) (UniProt P45983); experiment: activity of JNK1alpha1(h) at 1.0 µM in the Eurofins Kinase panel; conditions: Compound concentration 1.0 uM
Sequence of Mitogen-activated protein kinase 8 (Homo sapiens) (P45983 whole entry): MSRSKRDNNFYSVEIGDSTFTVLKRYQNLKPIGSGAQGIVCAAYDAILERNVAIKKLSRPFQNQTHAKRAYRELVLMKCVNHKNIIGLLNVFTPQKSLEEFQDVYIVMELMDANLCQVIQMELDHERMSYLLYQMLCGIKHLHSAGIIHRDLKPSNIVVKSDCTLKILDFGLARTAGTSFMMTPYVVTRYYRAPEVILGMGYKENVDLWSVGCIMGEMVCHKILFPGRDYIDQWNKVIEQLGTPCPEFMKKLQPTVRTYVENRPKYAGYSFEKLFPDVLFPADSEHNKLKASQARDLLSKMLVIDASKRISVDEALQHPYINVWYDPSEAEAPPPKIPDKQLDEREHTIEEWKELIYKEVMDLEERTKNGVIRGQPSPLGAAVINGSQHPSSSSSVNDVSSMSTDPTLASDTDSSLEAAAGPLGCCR

[22] = biological target: Cyclin-G-associated kinase (Homo sapiens, UniProt O14976); experiment: Promega NanoBRET (GAK)
[23] = biological target: Calcium/calmodulin-dependent protein kinase type II subunit delta (Homo sapiens) (UniProt Q13557); experiment: activity of CaMKIIdelta(h) at 1.0 µM in the Eurofins Kinase panel; conditions: Compound concentration 1.0 uM
Sequence of Calcium/calmodulin-dependent protein kinase type II subunit delta (Homo sapiens) (Q13557 whole entry): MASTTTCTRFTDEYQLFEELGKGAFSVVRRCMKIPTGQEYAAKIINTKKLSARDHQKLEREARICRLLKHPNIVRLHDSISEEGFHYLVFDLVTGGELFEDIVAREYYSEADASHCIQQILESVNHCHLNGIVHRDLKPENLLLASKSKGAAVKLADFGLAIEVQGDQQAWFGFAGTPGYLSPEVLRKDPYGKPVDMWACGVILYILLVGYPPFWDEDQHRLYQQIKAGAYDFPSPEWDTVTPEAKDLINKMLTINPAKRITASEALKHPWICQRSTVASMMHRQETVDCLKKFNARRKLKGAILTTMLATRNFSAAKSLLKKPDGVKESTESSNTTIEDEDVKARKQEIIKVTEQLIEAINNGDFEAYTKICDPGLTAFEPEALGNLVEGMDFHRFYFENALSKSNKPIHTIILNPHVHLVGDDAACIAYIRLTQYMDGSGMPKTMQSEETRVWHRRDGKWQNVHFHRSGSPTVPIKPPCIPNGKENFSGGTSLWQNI

[24] = biological target: Ephrin type-A receptor 7 (Homo sapiens) (UniProt Q15375); experiment: activity of EphA7(h) at 1.0 µM in the Eurofins Kinase panel; conditions: Compound concentration 1.0 uM
Sequence of Ephrin type-A receptor 7 (Homo sapiens) (Q15375 28-998 limits assumed): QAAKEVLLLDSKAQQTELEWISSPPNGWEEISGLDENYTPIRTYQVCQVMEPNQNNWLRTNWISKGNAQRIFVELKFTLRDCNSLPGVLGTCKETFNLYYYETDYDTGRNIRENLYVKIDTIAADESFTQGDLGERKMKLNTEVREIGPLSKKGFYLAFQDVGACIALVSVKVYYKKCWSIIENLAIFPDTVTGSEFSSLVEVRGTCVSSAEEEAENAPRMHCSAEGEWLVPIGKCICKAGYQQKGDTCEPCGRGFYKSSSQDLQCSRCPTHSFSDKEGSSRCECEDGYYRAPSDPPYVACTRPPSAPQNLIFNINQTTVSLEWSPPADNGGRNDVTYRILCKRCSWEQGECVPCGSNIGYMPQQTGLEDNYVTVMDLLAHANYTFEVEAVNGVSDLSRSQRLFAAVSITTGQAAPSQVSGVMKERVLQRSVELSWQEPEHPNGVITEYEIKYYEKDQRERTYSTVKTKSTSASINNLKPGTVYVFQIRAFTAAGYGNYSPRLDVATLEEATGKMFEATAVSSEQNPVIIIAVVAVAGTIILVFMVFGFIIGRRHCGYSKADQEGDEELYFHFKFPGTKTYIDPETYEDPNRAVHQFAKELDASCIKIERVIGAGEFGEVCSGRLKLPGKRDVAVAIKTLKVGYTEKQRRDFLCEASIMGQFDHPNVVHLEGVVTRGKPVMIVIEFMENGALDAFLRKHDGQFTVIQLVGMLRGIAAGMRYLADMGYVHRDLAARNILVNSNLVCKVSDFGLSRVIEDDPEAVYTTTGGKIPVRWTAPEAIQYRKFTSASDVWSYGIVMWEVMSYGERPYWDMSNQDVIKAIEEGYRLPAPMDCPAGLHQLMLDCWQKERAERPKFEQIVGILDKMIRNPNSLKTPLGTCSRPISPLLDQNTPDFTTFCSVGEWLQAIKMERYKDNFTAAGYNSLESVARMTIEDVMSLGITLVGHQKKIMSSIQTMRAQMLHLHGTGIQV

[25] = biological target: MAP kinase-activated protein kinase 3 (Homo sapiens) (UniProt Q16644); experiment: activity of MAPKAP-K3(h) at 1.0 µM in the Eurofins Kinase panel; conditions: Compound concentration 1.0 uM
[26] = biological target: cAMP-dependent protein kinase (PKA) (Homo sapiens) (UniProt P22694+P17612+P22612); experiment: activity of PKA(h) at 1.0 µM in the Eurofins Kinase panel; type: protein assay; conditions: Compound concentration 1.0 uM
[27] = biological target: Serine-protein kinase ATM (Homo sapiens) (UniProt Q13315); experiment: activity of ATM(h) at 1.0 µM in the Eurofins Kinase panel; conditions: Compound concentration 1.0 uM
[28] = biological target: Serine/threonine-protein kinase SBK1 (Homo sapiens) (UniProt Q52WX2); experiment: activity of SBK1(h) at 1.0 µM in the Eurofins Kinase panel; conditions: Compound concentration 1.0 uM
[29] = biological target: Discoidin domain-containing receptor 2 (Homo sapiens) (UniProt Q16832); experiment: activity of DDR2(h) at 1.0 µM in the Eurofins Kinase panel; conditions: Compound concentration 1.0 uM
[30] = biological target: Dual specificity tyrosine-phosphorylation-regulated kinase 1A (Homo sapiens) (UniProt Q13627); experiment: activity of DYRK1A(h) at 1.0 µM in the Eurofins Kinase panel; conditions: Compound concentration 1.0 uM
[31] = biological target: Tyrosine-protein kinase Fer (Homo sapiens) (UniProt P16591); experiment: activity of Fer(h) at 1.0 µM in the Eurofins Kinase panel; conditions: Compound concentration 1.0 uM
Sequence of Tyrosine-protein kinase Fer (Homo sapiens) (P16591 whole entry, looked up): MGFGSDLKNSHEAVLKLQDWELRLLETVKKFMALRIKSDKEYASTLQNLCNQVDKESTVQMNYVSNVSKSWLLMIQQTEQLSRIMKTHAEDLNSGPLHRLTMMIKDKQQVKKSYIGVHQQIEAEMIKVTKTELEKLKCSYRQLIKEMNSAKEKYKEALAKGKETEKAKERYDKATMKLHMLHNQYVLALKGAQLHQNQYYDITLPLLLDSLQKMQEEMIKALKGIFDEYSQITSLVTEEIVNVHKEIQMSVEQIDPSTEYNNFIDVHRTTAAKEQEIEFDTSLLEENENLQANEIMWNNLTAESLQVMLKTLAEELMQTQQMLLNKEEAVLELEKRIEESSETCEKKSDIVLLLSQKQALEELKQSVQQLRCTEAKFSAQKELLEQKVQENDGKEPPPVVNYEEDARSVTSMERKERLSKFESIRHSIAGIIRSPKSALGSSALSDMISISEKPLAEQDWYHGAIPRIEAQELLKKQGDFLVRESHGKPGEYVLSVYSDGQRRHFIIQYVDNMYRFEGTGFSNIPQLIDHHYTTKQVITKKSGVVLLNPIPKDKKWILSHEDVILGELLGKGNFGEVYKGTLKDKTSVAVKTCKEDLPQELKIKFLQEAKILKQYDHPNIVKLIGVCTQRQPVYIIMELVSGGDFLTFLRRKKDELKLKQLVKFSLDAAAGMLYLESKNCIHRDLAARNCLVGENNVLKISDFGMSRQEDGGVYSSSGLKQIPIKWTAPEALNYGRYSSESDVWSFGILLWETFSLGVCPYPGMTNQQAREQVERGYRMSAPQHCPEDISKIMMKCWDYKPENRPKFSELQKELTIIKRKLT

[32] = biological target: Tyrosine-protein kinase JAK1 (Homo sapiens) (UniProt P23458); experiment: activity of JAK1(h) at 1.0 µM in the Eurofins Kinase panel; conditions: Compound concentration 1.0 uM
[33] = biological target: G protein-coupled receptor kinase 6 (Homo sapiens) (UniProt P43250); experiment: activity of GRK6(h) at 1.0 µM in the Eurofins Kinase panel; conditions: Compound concentration 1.0 uM
[34] = biological target: CDK7/Cyclin H/MNAT1 (Homo sapiens) (UniProt P51946+P50613+P51948); experiment: activity of CDK7/cyclinH/MAT1(h) at 1.0 µM in the Eurofins Kinase panel; type: protein-complex assay; conditions: Compound concentration 1.0 uM
[35] = biological target: CDK4/Cyclin D3 (Homo sapiens) (UniProt P11802+P30281); experiment: activity of CDK4/cyclinD3(h) at 1.0 µM in the Eurofins Kinase panel; type: protein-complex assay; conditions: Compound concentration 1.0 uM
[36] = biological target: Dual specificity protein kinase CLK2 (Homo sapiens) (UniProt P49760); experiment: activity of CLK2(h) at 1.0 µM in the Eurofins Kinase panel; conditions: Compound concentration 1.0 uM
[37] = biological target: Phosphatidylinositol 4-phosphate 5-kinase type-1 alpha (Homo sapiens) (UniProt Q99755); experiment: activity of PIP5K1alpha(h) at 1.0 µM in the Eurofins Kinase panel; conditions: Compound concentration 1.0 uM
Sequence of Phosphatidylinositol 4-phosphate 5-kinase type-1 alpha (Homo sapiens) (Q99755 whole entry): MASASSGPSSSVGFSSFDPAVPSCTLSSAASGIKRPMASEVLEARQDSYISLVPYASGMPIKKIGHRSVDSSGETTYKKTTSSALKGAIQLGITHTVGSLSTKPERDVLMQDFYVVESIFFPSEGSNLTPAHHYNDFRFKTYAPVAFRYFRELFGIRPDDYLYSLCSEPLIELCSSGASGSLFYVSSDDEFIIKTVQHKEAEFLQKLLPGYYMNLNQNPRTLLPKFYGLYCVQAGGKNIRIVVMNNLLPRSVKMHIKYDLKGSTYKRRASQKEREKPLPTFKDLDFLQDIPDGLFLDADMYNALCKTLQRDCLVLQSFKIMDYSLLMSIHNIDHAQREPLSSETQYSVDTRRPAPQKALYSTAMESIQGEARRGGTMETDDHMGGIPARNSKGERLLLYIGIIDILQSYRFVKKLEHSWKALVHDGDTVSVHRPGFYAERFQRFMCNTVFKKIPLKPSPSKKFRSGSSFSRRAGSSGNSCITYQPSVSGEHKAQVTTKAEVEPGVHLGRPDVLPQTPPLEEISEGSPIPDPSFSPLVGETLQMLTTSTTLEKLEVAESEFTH

[38] = biological target: Serine/threonine-protein kinase MRCK gamma (Homo sapiens) (UniProt Q6DT37); experiment: activity of MRCKgamma(h) at 1.0 µM in the Eurofins Kinase panel; conditions: Compound concentration 1.0 uM
[39] = biological target: Serine/threonine-protein kinase Nek7 (Homo sapiens) (UniProt Q8TDX7); experiment: activity of NEK7(h) at 1.0 µM in the Eurofins Kinase panel; conditions: Compound concentration 1.0 uM
Sequence of Serine/threonine-protein kinase Nek7 (Homo sapiens) (Q8TDX7 whole entry, looked up): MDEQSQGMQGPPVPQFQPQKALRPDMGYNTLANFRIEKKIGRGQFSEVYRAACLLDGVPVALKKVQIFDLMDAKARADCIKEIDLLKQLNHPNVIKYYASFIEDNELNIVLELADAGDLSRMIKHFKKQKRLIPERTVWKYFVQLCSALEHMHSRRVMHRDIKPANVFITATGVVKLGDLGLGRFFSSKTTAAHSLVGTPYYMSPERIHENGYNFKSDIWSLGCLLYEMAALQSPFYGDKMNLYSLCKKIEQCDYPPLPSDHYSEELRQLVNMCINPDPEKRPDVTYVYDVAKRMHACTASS

activity [1]: 97%
activity [2]: 81%
activity [3]: 90%
activity [5]: 120%
activity [6]: 90%
activity [7]: 93%
activity [8]: 99%
activity [9]: 101%
activity [10]: 102%
activity [11]: 89%
activity [12]: 96%
activity [13]: 108%
activity [14]: 94%
activity [15]: 103%
activity [16]: 105%
activity [17]: 110%
activity [18]: 115%
activity [19]: 103%
activity [20]: 111%
activity [21]: 110%
IC50 [22]: > 10 µM (not active)
activity [23]: 96%
activity [24]: 114%
activity [25]: 125%
activity [26]: 109%
activity [27]: 103%
activity [28]: 97%
activity [29]: 85%
activity [30]: 112%
activity [31]: 103%
activity [32]: 85%
activity [33]: 95%
activity [34]: 95%
activity [35]: 74%
activity [36]: 106%
activity [37]: 103%
activity [38]: 98%
activity [39]: 88%
SMILES: Cc1cc2c(-c3ccc(NC(=O)[C@H](N)CC(C)(C)C)cc3C)ccnc2[nH]1
activity [4]: 82%
